For two molecules, Km, kcat and kcat/Km results are on record in patent US20250250606A1, “BIOELECTROCHEMICAL DETERMINATION OF LACTATE” (DIRECTSENS GMBH, priority 2022, published 2025).

One series deals with C[C@H](O)C(=O)O. Description: purified protein, by the assay type. As to conditions: other: apparent, L-lactate 0.125 to 64 mM, DCIP 120 μM, 11 mM PBS pH 7.4, 30° C.
Series [1] deals with T1, Lactobacillus johnsonii lactate dehydrogenase LjLDH, SEQ ID NO: 59, N-terminal 6xHis/HRV 3C tag (SEQ ID NO: 250) (Lactobacillus johnsonii, UniProt A0A7D9N8I3).
T1 sequence (A0A7D9N8I3 1-412): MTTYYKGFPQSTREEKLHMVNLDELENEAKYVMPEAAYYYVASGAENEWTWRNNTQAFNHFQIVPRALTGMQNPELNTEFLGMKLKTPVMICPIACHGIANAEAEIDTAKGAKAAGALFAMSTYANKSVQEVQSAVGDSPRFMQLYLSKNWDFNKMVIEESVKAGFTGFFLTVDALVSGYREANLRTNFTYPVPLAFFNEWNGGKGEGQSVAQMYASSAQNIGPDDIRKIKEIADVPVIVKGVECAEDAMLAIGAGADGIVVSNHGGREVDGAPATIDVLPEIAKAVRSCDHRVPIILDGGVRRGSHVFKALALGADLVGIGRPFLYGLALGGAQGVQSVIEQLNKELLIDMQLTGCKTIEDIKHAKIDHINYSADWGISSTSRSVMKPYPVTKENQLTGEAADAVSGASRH
Description: Apparent steady-state kinetics of L-lactate oxidation with DCIP as electron acceptor. Format: biochemical. As to conditions: L-lactate 0.125 to 64 mM, DCIP 120 μM, 11 mM PBS pH 7.4, 30° C.

In series [2] the target is T2, Lactobacillus helsingborgensis lactate dehydrogenase LhLDH, SEQ ID NO: 13, N-terminal 6xHis/HRV 3C tag (SEQ ID NO: 250) (Lactobacillus helsingborgensis, UniProt A0A0F4LW09).
T2 sequence (A0A0F4LW09 1-409): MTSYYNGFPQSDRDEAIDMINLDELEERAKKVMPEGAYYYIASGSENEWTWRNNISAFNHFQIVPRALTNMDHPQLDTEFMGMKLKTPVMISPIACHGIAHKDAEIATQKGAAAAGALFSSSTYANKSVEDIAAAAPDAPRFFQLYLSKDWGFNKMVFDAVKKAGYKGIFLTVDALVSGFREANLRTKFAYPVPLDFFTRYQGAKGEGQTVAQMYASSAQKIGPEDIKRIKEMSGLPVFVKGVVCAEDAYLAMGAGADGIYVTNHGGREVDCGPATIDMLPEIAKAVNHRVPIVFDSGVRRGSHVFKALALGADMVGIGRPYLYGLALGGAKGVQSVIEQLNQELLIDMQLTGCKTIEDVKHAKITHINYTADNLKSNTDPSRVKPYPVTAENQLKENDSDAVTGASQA
Described as above. Format: biochemical. As to conditions: L-lactate 0.125 to 64 mM, DCIP 120 μM, 11 mM PBS pH 7.4, 30° C.

The target in series [3] is T3, Gilliamella bombicola lactate dehydrogenase GbLDH, SEQ ID NO: 73, N-terminal 6xHis/HRV 3C tag (SEQ ID NO: 250) (Gilliamella bombicola, UniProt A0A1C4CJ33).
T3 sequence (A0A1C4CJ33 1-365): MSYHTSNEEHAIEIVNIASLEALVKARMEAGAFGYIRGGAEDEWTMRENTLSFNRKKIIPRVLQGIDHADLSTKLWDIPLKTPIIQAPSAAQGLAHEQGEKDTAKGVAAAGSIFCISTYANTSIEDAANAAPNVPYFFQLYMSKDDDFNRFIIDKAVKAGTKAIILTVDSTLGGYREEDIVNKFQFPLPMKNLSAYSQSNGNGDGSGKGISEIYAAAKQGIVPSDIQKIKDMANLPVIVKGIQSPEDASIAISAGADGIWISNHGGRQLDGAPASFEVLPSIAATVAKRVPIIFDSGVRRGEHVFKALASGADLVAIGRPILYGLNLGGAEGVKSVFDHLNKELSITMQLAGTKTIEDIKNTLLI
Described as above. It is filed as biochemical. The settings on record: L-lactate 0.125 to 64 mM, DCIP 120 μM, 11 mM PBS pH 7.4, 30° C.

Series [4] deals with Shigella sp. FC1655 lactate dehydrogenase SsLDH, SEQ ID NO: 74, predicted signal peptide removed, N-terminal 6xHis/HRV 3C tag (SEQ ID NO: 250). The settings on record: apparent, L-lactate 0.125 to 64 mM, DCIP 120 μM, 11 mM PBS pH 7.4, 30° C.
Series [5] has as its target T4, Pediococcus acidilactici lactate dehydrogenase PaLDH (PaLCTO), native form, SEQ ID NO: 2 (Pediococcus acidilactici, UniProt E0NE46).
T4 sequence (E0NE46 1-369): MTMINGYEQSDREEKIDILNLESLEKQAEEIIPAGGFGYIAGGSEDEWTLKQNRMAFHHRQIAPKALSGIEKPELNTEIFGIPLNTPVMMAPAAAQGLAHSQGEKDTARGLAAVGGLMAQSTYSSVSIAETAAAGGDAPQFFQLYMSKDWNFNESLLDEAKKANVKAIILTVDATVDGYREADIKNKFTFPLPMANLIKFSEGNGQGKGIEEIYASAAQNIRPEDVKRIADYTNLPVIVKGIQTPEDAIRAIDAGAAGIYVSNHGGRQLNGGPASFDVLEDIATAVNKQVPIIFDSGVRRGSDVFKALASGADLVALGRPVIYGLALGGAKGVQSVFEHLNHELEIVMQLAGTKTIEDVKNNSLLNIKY
As to conditions: apparent; L-lactate 4 to 500 mM; DCIP 120 μM; 11 mM PBS pH 7.4, 30° C.; per monomeric mass.

A word on the Km: it is the substrate concentration at which the rate is half of its maximum. One may read the kcat as the maximal rate divided by the concentration of active sites. A word on the kcat/Km: it is the second-order rate constant that governs catalysis at low substrate concentration. In the case of “Enterococcus avium lactate dehydrogenase EaLDH, SEQ ID NO: 155, N-terminal 6xHis/HRV 3C tag (SEQ ID NO: 250) (Enterococcus avium ATCC 14025)”, in the series with C[C@H](O)C(=O)O, the Km is 21.6 ± 2.2 mM, the turnover number (kcat) was determined as 94 ± 7.8 s⁻¹ and the kcat/Km is 4350 M⁻¹ s⁻¹.

`C[C@H](O)C(=O)O` [L-lactate]: the Km is 1.35 ± 0.18 mM in series [1], 520 ± 90 µM in series [2], 16.9 ± 2.5 mM in series [3] and 5.67 ± 1.24 mM in series [4]. In addition, the kcat was 47.2 ± 2.0 s⁻¹ in series [1] (per monomeric mass); 102 ± 8 s⁻¹ in series [2] (per monomeric mass); 207 ± 29 s⁻¹ in series [3] (per monomeric mass); 107 ± 10 s⁻¹ in series [4] (per monomeric mass); 61.8 ± 8.5 s⁻¹ in series [5].
